According to ChEMBL document CHEMBL1201862, “PubChem BioAssay data set” (2004):
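Following 48 hours of exposure in 96-well plates, responses at five concentrations were used to interpolate endpoints linearly. Here, GI50 denotes the concentration required for 50% inhibition of growth.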 Activity calls are given as the source filed them. Rule as the data show it: active = GI50 up to about 1.1 µM and inactive = higher.

What was measured:
Assay in all cases: DTP human tumour cell line panel, 48 h
786-0 = test system: 786-0
A549 = test system: A549
ACHN = test system: ACHN
CAKI-1 = test system: CAKI-1
CCRF-CEM = test system: CCRF-CEM
COLO 205 = test system: COLO 205
DLD-1 = test system: DLD-1
DMS-114 = test system: DMS-114
DMS-273 = test system: DMS-273
EKVX = test system: EKVX
HCC 2998 = test system: HCC 2998
HCT-15 = test system: HCT-15
HL-60 = test system: HL-60
HOP-62 = test system: HOP-62
HOP-92 = test system: HOP-92
HT-29 = test system: HT-29
IGROV-1 = test system: IGROV-1
K562 = test system: K562
KM-20L2 = test system: KM-20L2
KM12 = test system: KM12
LOX IMVI = test system: LOX IMVI
LXFL 529 = test system: LXFL 529
M14 = test system: M14
M19-MEL = test system: M19-MEL
Malme-3M = test system: Malme-3M
NCI-H226 = test system: NCI-H226
NCI-H23 = test system: NCI-H23
NCI-H460 = test system: NCI-H460
NCI-H522 = test system: NCI-H522
OVCAR-3 = test system: OVCAR-3
OVCAR-4 = test system: OVCAR-4
OVCAR-5 = test system: OVCAR-5
OVCAR-8 = test system: OVCAR-8
RPMI-8226 = test system: RPMI-8226
RXF 393 = test system: RXF 393
SF-268 = test system: SF-268
SF-295 = test system: SF-295
SF-539 = test system: SF-539
SK-MEL-28 = test system: SK-MEL-28
SK-MEL-2 = test system: SK-MEL-2
SK-MEL-5 = test system: SK-MEL-5
SK-OV-3 = test system: SK-OV-3
SN12C = test system: SN12C
SNB-19 = test system: SNB-19
SNB-75 = test system: SNB-75
SR = test system: SR
SW-620 = test system: SW-620
TK-10 = test system: TK-10
U-251 = test system: U-251
UACC-257 = test system: UACC-257
UACC-62 = test system: UACC-62
UO-31 = test system: UO-31
XF498 = test system: XF498
A498 = test system: A498
HCT-116 = test system: HCT-116
MOLT-4 = test system: MOLT-4
SNB-78 = test system: SNB-78

Measured: GI50

CC(C)(C)[C@H]1CO[C@]2(c3ccccc3)[C@@H]3C[C@@H]3C(=O)N12
inactive: 786-0 > 100 µM | A549 > 100 µM | ACHN > 100 µM | CAKI-1 > 100 µM | CCRF-CEM > 10 µM | COLO 205 > 100 µM | DLD-1 > 100 µM | DMS-114 > 100 µM | DMS-273 > 100 µM | EKVX > 100 µM | HCC 2998 > 100 µM | HL-60 > 100 µM | HOP-62 > 100 µM | HOP-92 > 100 µM | HT-29 > 100 µM | IGROV-1 > 100 µM | K562 > 10 µM | KM-20L2 > 100 µM | KM12 > 100 µM | LOX IMVI > 100 µM | LXFL 529 > 100 µM | M14 > 100 µM | M19-MEL > 100 µM | Malme-3M > 100 µM | NCI-H226 > 100 µM | NCI-H23 > 100 µM | NCI-H460 > 100 µM | NCI-H522 > 100 µM | OVCAR-3 > 100 µM | OVCAR-4 > 100 µM | OVCAR-5 > 100 µM | OVCAR-8 > 100 µM | RPMI-8226 > 100 µM | RXF 393 > 100 µM | SF-268 > 100 µM | SF-295 > 100 µM | SF-539 > 100 µM | SK-MEL-28 > 100 µM | SK-MEL-2 > 100 µM | SK-MEL-5 > 100 µM | SK-OV-3 > 100 µM | SN12C > 100 µM | SNB-19 > 100 µM | SNB-75 > 100 µM | SR > 100 µM | SW-620 > 100 µM | TK-10 > 100 µM | U-251 > 100 µM | UACC-257 > 100 µM | UACC-62 > 100 µM | UO-31 > 100 µM | XF498 > 100 µM
> 100 µM: HCT-15

O=C1OC(c2ccccc2)=N/C1=C/NC(CS)C(=O)O (configuration not stated)
> 100 µM: HCT-15
inactive: 786-0 > 100 µM | A498 > 100 µM | A549 > 100 µM | ACHN > 100 µM | CCRF-CEM > 100 µM | COLO 205 > 100 µM | DLD-1 > 100 µM | DMS-114 > 100 µM | DMS-273 > 100 µM | EKVX > 100 µM | HCC 2998 > 100 µM | HCT-116 > 100 µM | HL-60 > 100 µM | HOP-62 > 100 µM | HOP-92 > 100 µM | HT-29 > 100 µM | IGROV-1 > 100 µM | K562 > 100 µM | KM-20L2 > 100 µM | LOX IMVI > 100 µM | LXFL 529 > 100 µM | M14 > 100 µM | M19-MEL > 100 µM | MOLT-4 > 100 µM | Malme-3M > 100 µM | NCI-H226 > 100 µM | NCI-H23 > 100 µM | NCI-H460 > 100 µM | NCI-H522 55.8 µM | OVCAR-3 > 100 µM | OVCAR-4 > 100 µM | OVCAR-5 > 100 µM | OVCAR-8 > 100 µM | RPMI-8226 > 100 µM | RXF 393 > 100 µM | SF-268 > 100 µM | SF-295 > 100 µM | SF-539 > 100 µM | SK-MEL-28 > 100 µM | SK-MEL-2 > 100 µM | SK-MEL-5 > 100 µM | SK-OV-3 > 100 µM | SN12C > 100 µM | SNB-19 > 100 µM | SNB-75 64.3 µM | SNB-78 > 100 µM | SR > 100 µM | SW-620 > 100 µM | TK-10 > 100 µM | U-251 > 100 µM | UACC-257 > 100 µM | UACC-62 > 100 µM | UO-31 > 100 µM
